A short description of assay [1]: Hepatic phospholipids in rats after intoxication with CCl4. It is filed as in vivo, rat. Particulars: for Total phospholipids: average ± E.S. of 10 values. The text has this:
This was confirmed by successive pharmacological tests. […] Hepatic phospholipids in rats after intoxication with CCl4 and treatment with SAM.

Assay [2] in a line: Hexobarbital sleeping time in mice. The assay is classed as in vivo, mouse. As for the experimental part: A further aspect considered by us was the possible action of SAM on the sleeping time by barbiturates. For this purpose an experiment was made in which groups of mice received hexobarbital in a dose of 80 mg/kg/i.p. in accordance with the method of Holten and Larsen (Acta Pharmacol. […] (table).

Consider `C[S+](CC[C@H](N)C(=O)O)C[C@H]1O[C@@H](n2cnc3c(N)ncnc32)[C@H](O)[C@@H]1O` (some centres unmarked) [SAM, SAM disulphate di-p-toluenesulphonate], for which the Total phospholipids in assay [1] (CCl4 + SAM 15 mg/kg/i.p.) is 27.20 ± 1.25 mg/g; in assay [1] (CCl4 + SAM 150 mg/kg/i.p.) it was 20.87 ± 0.42 mg/g. Moreover, the “levels of phospholipids reduced after intoxication with CCl4” value in assay [1] (rats, CCl4) is “favours the restoration of normal levels of phospholipids”. The “prolonging the sleeping time induced by hexobarbital” value in assay [2] (10 mg/kg/i.p.) is “active in prolonging the sleeping time”. Besides, the Sleeping time in assay [2] (SAM 10 mg/kg/i.p., hexobarbital 80 mg/kg/i.p.) turned out to be 41.2 ± 5.8 min.

For the origin of these results see patent US3954726A, “Double salts of S-adenosil-L-methionine” (Bioresearch Limited, priority 1973, dated 1976).
